Test results reported in patent US6391305B1, “Conjugates useful in the treatment of prostate cancer” (priority 1999, dated 2002).
Marks after values point to notes of the source that are not given here. Non-standard residues stand in square brackets, D forms with d. Residues, ends and D or L forms follow the SMILES beside them. *: point of attachment. Doxorubicin(3'-N) = COc1cccc2c1C(=O)c1c(O)c3c(c(O)c1C2=O)C[C@@](O)(C(=O)CO)C[C@@H]3O[C@H]1C[C@H](N*)[C@H](O)[C@H](C)O1; Decanoyl(3,6,9-trioxa) = COCCOCCOCC(=O)*; Glyceroyl(2S) = O=C([C@@H](O)CO)*; hArg = N=C(N)NCCCC[C@H](N)C(=O)O; Chg = N[C@H](C(=O)O)C1CCCCC1; Nle = CCCC[C@H](N)C(=O)O; Glycolyl = O=C(CO)*

Assays:
[1] = Solubility remarks (INSOLUBLE, PS, PP) printed beside the assay results of Tables 2-4; assay type: physicochemical; details: DOX conjugate in cytotoxicity test
[2] = biological target: T1, enzymatically active free PSA (Homo sapiens, UniProt P07288); test: Recognition (cleavage) of oligopeptide-doxorubicin conjugates by free PSA, HPLC; assay type: biochemical; details: DOX conjugate; for Time to 50% Substrate Cleavage by York PSA: PSA digestion buffer pH7.4, 140 mM NaCl, molar ratio to PSA 100 to 1
T1 construct: required for 50% cleavage of the noted oligopeptides with enzymatically active free PSA
T1 sequence (P07288 25-261): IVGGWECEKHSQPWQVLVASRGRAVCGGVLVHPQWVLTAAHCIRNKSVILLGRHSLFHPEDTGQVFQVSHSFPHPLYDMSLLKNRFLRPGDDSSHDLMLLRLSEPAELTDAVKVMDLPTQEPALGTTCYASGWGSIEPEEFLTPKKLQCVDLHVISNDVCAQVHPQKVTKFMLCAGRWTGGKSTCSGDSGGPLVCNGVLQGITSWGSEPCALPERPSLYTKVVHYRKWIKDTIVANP
Protocol: If no salt is indicated for the conjugate, the free conjugate was tested.

[3] = system: LNCap prostate tumor cells; test: In vitro cytotoxicity, Alamar Blue assay, LNCaP; assay type: cell-based; details: 72 HRS, read-out: LNCaP Cell Kill in 72 HRS, {48 HRS} EC 50
Protocol: (§1) The cytotoxicities of the cleaveable oligopeptide-doxorubicin conjugates, prepared as described in Examples 3-6, against a line of cells which is known to be killed by unmodified doxorubicin was assessed with an Alamar Blue assay. Specifically, cell cultures of LNCap prostate tumor cells or DuPRO cells in 96 well plates was diluted with medium containing various concentrations of a given conjugate (final plate well volume of 200 μl ). The cells were incubated for 3 days at 37° C., 20 μl of Alamar Blue is added to the assay well. The cells were further incubated and the assay plates were read on a EL-310 ELISA reader at the dual wavelengths of 570 and 600 nm at 4 and 7 hours after addition of Alamar Blue. Relative percentage viability at the various concentration of conjugate tested was then calculated versus control (no conjugate) cultures. If no salt is indicated, the free conjugate was tested.

DuPRO cells = test: In vitro cytotoxicity, Alamar Blue assay, DuPRO; assay type: cell-based; details: value in parentheses beside the LNCaP value, read-out: DuPRO cell kill EC 50
Protocol: as §1

## COCCOCCOCC(=O)N[C@@H](CCCCNC(=N)N)C(=O)N[C@H](C(=O)N[C@@H](CCC(N)=O)C(=O)N[C@@H](CO)C(=O)N[C@@H](CC(C)C)C(=O)N[C@H]1C[C@H](O[C@H]2C[C@](O)(C(=O)CO)Cc3c(O)c4c(c(O)c32)C(=O)c2c(OC)cccc2C4=O)O[C@@H](C)[C@H]1O)C1CCCCC1 [PEG(2)-HomoRChgQ-SL-DOX (3′), PEG(2)-hArgChgGln-SerLeu-DOX (3′)] ({Decanoyl(3,6,9-trioxa)}-[hArg][Chg]QSL-{Doxorubicin(3'-N)})
[1]
  Solubility remark in Table 4: INSOLUBLE
[2]; 4 hours
  Substrate cleavage by York PSA at 4 HOUR: 12%

## CCCC[C@H](NC(=O)[C@H](CO)NC(=O)[C@H](CCC(N)=O)NC(=O)[C@H](Cc1ccc(O)cc1)NC(=O)[C@H](CO)NC(=O)[C@H](CO)NC(=O)[C@H](CCCCNC(=N)N)NC(=O)CO)C(=O)N[C@H]1C[C@H](O[C@H]2C[C@](O)(C(=O)CO)Cc3c(O)c4c(c(O)c32)C(=O)c2c(OC)cccc2C4=O)O[C@@H](C)[C@H]1O [2-hydroxyacetyl-HomoRSSYQ-SNle-DOX (3′), 2-hydroxyacetyl-hArgSerSerTyrGln-SerNle-DOX (3′)] (Glycolyl-[hArg]SSYQS[Nle]-{Doxorubicin(3'-N)})
[2]; alternative PSA digestion buffer pH8.0, 25 mM NaCl, 0.5 mM CaCl2
  Time to 50% Substrate Cleavage by York PSA (Min), value marked *: 60* Min
[3]
  EC50: 3.6 µM
DuPRO cells
  EC50: > 100 µM

## COCCOCCOCC(=O)N[C@@H](CCCCNC(=N)N)C(=O)N[C@@H](CO)C(=O)N[C@@H](CO)C(=O)N[C@H](C(=O)N[C@@H](CCC(N)=O)C(=O)N[C@@H](CO)C(=O)N[C@@H](CC(C)C)C(=O)N[C@H]1C[C@H](O[C@H]2C[C@](O)(C(=O)CO)Cc3c(O)c4c(c(O)c32)C(=O)c2c(OC)cccc2C4=O)O[C@@H](C)[C@H]1O)C1CCCCC1 [PEG(2)-HomoRSSChgQ-SL-DOX (3′), PEG(2)-hArgSerSerChgGln-SerLeu-DOX (3′)] ({Decanoyl(3,6,9-trioxa)}-[hArg]SS[Chg]QSL-{Doxorubicin(3'-N)})
[2]
  Time to 50% Substrate Cleavage by York PSA: 11 min
[3]
  EC50: 5.7 µM
DuPRO cells
  EC50: > 100 µM

## COc1cccc2c1C(=O)c1c(O)c3c(c(O)c1C2=O)C[C@@](O)(C(=O)CO)C[C@@H]3O[C@H]1C[C@H](NC(=O)[C@H](CC(C)C)NC(=O)[C@H](CO)NC(=O)[C@H](CCC(N)=O)NC(=O)[C@@H](NC(=O)[C@H](CCCCNC(=N)N)NC(=O)[C@H](CO)NC(=O)[C@@H](O)CO)C2CCCCC2)[C@H](O)[C@H](C)O1 [(l) 2,3-dihydroxypropionyl-SerhArgChgGln-SerLeu-DOX (3′)] ({Glyceroyl(2S)}-S[hArg][Chg]QSL-{Doxorubicin(3'-N)})
[2]
  Time to 50% Substrate Cleavage by York PSA: 15 min
[3]
  EC50: 9.4 µM
DuPRO cells
  EC50: > 100 µM

## COc1cccc2c1C(=O)c1c(O)c3c(c(O)c1C2=O)C[C@@](O)(C(=O)CO)C[C@@H]3O[C@H]1C[C@H](NC(=O)[C@H](CC(C)C)NC(=O)[C@H](CO)NC(=O)[C@H](CCC(N)=O)NC(=O)[C@@H](NC(=O)[C@H](CO)NC(=O)[C@H](CO)NC(=O)[C@@H](O)CO)C2CCCCC2)[C@H](O)[C@H](C)O1 [(l)(2,3-dihydroxypropionyl)-SerSerChgGln-SerLeu-DOX (3′)] ({Glyceroyl(2S)}-SS[Chg]QSL-{Doxorubicin(3'-N)})
[2]
  Time to 50% Substrate Cleavage by York PSA: 25 min
[3]
  EC50: 13 µM
DuPRO cells
  EC50: > 100 µM

## COCCOCCOCC(=O)N[C@@H](CO)C(=O)N[C@@H](CCCCNC(=N)N)C(=O)N[C@H](C(=O)N[C@@H](CCC(N)=O)C(=O)N[C@@H](CO)C(=O)N[C@@H](CC(C)C)C(=O)N[C@H]1C[C@H](O[C@H]2C[C@](O)(C(=O)CO)Cc3c(O)c4c(c(O)c32)C(=O)c2c(OC)cccc2C4=O)O[C@@H](C)[C@H]1O)C1CCCCC1 [PEG(2)-SHomoRChgQ-SL-DOX (3′), PEG(2)-SerhArgChgGln-SerLeu-DOX (3′)] ({Decanoyl(3,6,9-trioxa)}-S[hArg][Chg]QSL-{Doxorubicin(3'-N)})
[2]
  Time to 50% Substrate Cleavage by York PSA: 25 min
[3]
  EC50: 8.1 µM
DuPRO cells
  EC50: > 100 µM
